Results from patent US20070212355A1 (priority 2005, published 2007).

How the values were obtained:
[1] = CD spectra secondary structure of peptides; format: physicochemical; settings: 0.2 mg/mL in PBS, 25° C.
Procedure: The secondary structures of tested peptides were determined using 0.2 mg/mL peptide solutions in PBS. Briefly, CD spectra were collected in triplicate at 1 nm intervals at 25° C. in 0.1 cm path length cell. Secondary structures were determined by fitting of the CD spectra using CD spectra software (CD Spectra Deconvolution software 2.1). All tested peptides contained peaks corresponding to the presence of alpha helices.

[2] = molecular target: T1, mutated human GLP-2R (Homo sapiens, UniProt O95838, E512D/G511A/L513V); experiment: cAMP expression assay in HEK 293E clonal cell line expressing mutated human GLP-2R; format: cell-based; settings: assay set-up, vs control peptide
T1 construct: expressed in transfected cells; host or cells: HEK 293E clonal cell line
T1 sequence (O95838 1-553 G511A/E512D/L513V): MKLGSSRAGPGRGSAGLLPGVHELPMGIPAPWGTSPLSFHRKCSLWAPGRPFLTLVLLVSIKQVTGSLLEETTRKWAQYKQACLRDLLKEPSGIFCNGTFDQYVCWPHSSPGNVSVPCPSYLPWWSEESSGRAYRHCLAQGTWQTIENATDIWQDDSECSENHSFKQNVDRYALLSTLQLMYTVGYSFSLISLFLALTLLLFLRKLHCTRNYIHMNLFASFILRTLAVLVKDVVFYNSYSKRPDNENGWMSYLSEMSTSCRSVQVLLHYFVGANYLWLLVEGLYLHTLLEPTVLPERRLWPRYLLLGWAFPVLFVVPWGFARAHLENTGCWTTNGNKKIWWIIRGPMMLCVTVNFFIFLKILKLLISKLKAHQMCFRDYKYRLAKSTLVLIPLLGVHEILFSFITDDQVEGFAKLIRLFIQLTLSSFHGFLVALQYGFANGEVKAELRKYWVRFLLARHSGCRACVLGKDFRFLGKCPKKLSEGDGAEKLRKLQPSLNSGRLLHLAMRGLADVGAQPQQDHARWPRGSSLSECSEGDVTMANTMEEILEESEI
Description: To achieve this goal, a clonal cell line expressing a mutated human GLP-2R was generated by transfecting HEK 293E cells. The mutated human GLP-2R differs from the wild-type human GLP-2R (SEQ ID NO: 35) at three amino acid positions within the C-terminal intracellular region (SEQ ID NO: 36).
The cAMP expression was quantitated using the cAMP Direct Screen System (Cat. No. CSD 200, Applied Biosystems, Bedford, Mass.).
This assay was based on the cAMP Direct Screen System from Applied Biosystems utilizing a cell line expressing mutated huGLP-2R in HEK 293E cells. Peptide at concentrations ranging from 0.01 nM to 1.0 uM in PBS with 0.5% BSA was added to ˜50,000 cells suspended in 96-well plates. After a 30-minute incubation at 37° C., Lysis Buffer followed by luminescence reagents (Applied Biosystems) was added according to the manufacturers' procedures (Applied Biosystems Luminescence protocol: cAMP-Screen Direct System). Luminescence was quantitated using a TopCount liquid scintillation analyzer (PerkinElmer), and data was processed using Softmax software (Molecular Devices Corporation).

[3] = Helical propensity analysis using TFE (CD at 222 nm); format: physicochemical; settings: 0.2 mg/mL in PBS (pH 7.5), MRE at 222 nm
Procedure: In addition, trifluoroethanol (TFE) is known to induce helix formation in peptides (Soennichsen et al., Biochemistry 31: 8791 (1992)). Accordingly, helical propensity analysis using TFE was performed. Briefly, tested peptides were diluted to 0.2 mg/mL in PBS (pH 7.5) containing 0, 1, 5, 15, 33 or 50% TFE. CD spectra were collected and CD plots were generated after data averaging, buffer subtraction and curve smoothing. Helical propensity values were obtained from mean residue ellipticity (MRE) at 222 nm versus % TFE plots. The concentration of TFE that effected a 50% transformation of the CD spectrum at 222 nm was used as a measure of helical propensity.

[4] = SEC-SLS self-association of peptides in PBS (pH 7.5); format: physicochemical; settings: for SEC-SLS elution / self-association state: 1 mg/ml
Procedure: The self-association poses a challenge to the development and manufacturing of a homogeneous therapeutic.
(§1) Solution molecular weight of the peptides was measured by SEC-SLS. Briefly, peptide solutions in PBS (pH 7.5) at 0.4 to 2.0 mg/mL were fractionated over a Superdex peptide column (Amersham Pharmacia). The eluted peaks were monitored by static light scattering at 690 nm and solution molecular weight was determined at UV 280 nm using the Astra software package (Wyatt Inc.).

[5] = humans; cited from earlier work
[6] = tested on: mice; experiment: Upper gastrointestinal transit, carmine dye technique, normal mice; format: in vivo; settings: 50 μg/mouse daily s.c. 10 days, 20-minute test period, vs PBS vehicle, FIG. 3
Procedure: To test the effects of A2G-GLP-2 on upper gastrointestinal transit in normal mice, mice were randomly assigned to 2 groups (14 animals per test group). Each group received daily subcutaneous injection (total volume […]) of either A2G-GLP-2 peptide (50 μg/mouse) or the phosphate-buffered saline vehicle for 10 consecutive days.
On the day of study, upper gastrointestinal transit was measured using the carmine dye technique. Mice were fed a test meal of 0.25 ml of a 6% (w/v) solution of carmine cochineal powder mixed into 0.5% (w/v) methylcellulose administered intragastrically by an 18 gauge curved feeding tube. Following oral test meal administration, mice were replaced into their home cages. Twenty minutes after marker meal administration, mice were rapidly euthanized by cervical dislocation and the entire gastrointestinal tract was excised starting from the distal colon and working towards the gastric pylorus. […] The linear distance traversed by the carmine dye front through the small intestine was measured together with the total length of the small bowel. Upper gastrointestinal transit was expressed as the percentage of the entire small intestine traversed by the carmine dye front during the 20-minute test period: % small intestine traveled =[distance traversed by dye front through small intestine (cm)/entire small intestine length (cm)×100].

[7] = tested on: CD1 mice; experiment: Mucosal wet weight of small intestine after 10 daily subcutaneous injections; format: in vivo; settings: 2.5 mg/kg (13.3 nmole) daily s.c. 10 days; p<0.0001
Description: Afterwards, the mice were euthanized and the small intestines were removed, flushed with saline, and processed as described below.
Specifically, 4 cm sections were harvested: (1) immediately distal to the pylorus (duodenum), (2) starting 2 cm distal of the ligament of Treitz (jejunum), and (3) immediately proximal to the cecum (ileum). The remaining small intestine from ˜6 cm distal of the ligament of Treitz to 4 cm proximal to the cecum was used to prepare mucosal scrapings. From the proximal and distal ends of the remnant, an equal distance was removed until a 15 cm section remained, the remnant was cut longitudinally, rinsed, and the mucosal layer was removed using the short end of a glass microscope slide. The wet weight of the intact intestinal segments and mucosa was measured.

[8] = background statement; cited from earlier work
[9] = molecular target: the molecule itself; experiment: SEC-SLS, self-association at 1 mg/ml in PBS pH 7.5
Procedure: as §1

**Q.** Which results are given for `CC[C@H](C)[C@H](NC(=O)[C@H](Cc1ccccc1)NC(=O)[C@H](CC(=O)O)NC(=O)[C@H](CCCNC(=N)N)NC(=O)[C@H](C)NC(=O)[C@H](C)NC(=O)[C@H](CC(C)C)NC(=O)[C@H](CC(N)=O)NC(=O)[C@H](CC(=O)O)NC(=O)[C@H](CC(C)C)NC(=O)[C@@H](NC(=O)[C@@H](NC(=O)[C@H](CC(N)=O)NC(=O)[C@H](CCSC)NC(=O)[C@H](CCC(=O)O)NC(=O)[C@H](CC(=O)O)NC(=O)[C@H](CO)NC(=O)[C@H](Cc1ccccc1)NC(=O)[C@H](CO)NC(=O)CNC(=O)[C@H](CC(=O)O)NC(=O)[C@H](C)NC(=O)[C@@H](N)Cc1c[nH]cn1)[C@@H](C)O)[C@@H](C)CC)C(=O)N[C@@H](CC(N)=O)C(=O)N[C@@H](Cc1c[nH]c2ccccc12)C(=O)N[C@@H](CC(C)C)C(=O)N[C@H](C(=O)N[C@@H](CCC(N)=O)C(=O)N[C@H](C(=O)N[C@@H](CCCCN)C(=O)N[C@H](C(=O)N[C@H](C(=O)N[C@@H](CC(=O)O)C(=O)O)[C@@H](C)O)[C@@H](C)CC)[C@@H](C)O)[C@@H](C)CC` [SEQ ID NO: 1]?
**A.** Helix (percentage of helical structure) [1]: 19.6%; Random coil (percentage) [1]: 37.9%; stimulation of cAMP expression [2]: stimulated cAMP expression; TFE required for helical transformation (helical propensity) [3]: ~16 % TFE; self-association state ([4]; 0.4 mg/mL): monomer; SEC-SLS elution / self-association state [4]: overlapping dimer and monomer peaks; proportion of monomers ([4]; 2 mg/mL): about 20%; proportion of reversibly self-associated dimer ([4]; 2 mg/mL): about 80%; reported half-life [5]: 7.2 ± 2 min

**Q.** Which “Helix (percentage of helical structure)” value [1] does the source give for `CC[C@H](C)[C@H](NC(=O)[C@H](Cc1ccccc1)NC(=O)[C@H](CC(=O)O)NC(=O)[C@H](CCCNC(=N)N)NC(=O)[C@H](C)NC(=O)[C@H](C)NC(=O)[C@H](CC(C)C)NC(=O)[C@H](CC(N)=O)NC(=O)[C@H](CC(=O)O)NC(=O)[C@H](CC(C)C)NC(=O)[C@@H](NC(=O)[C@@H](NC(=O)[C@H](CC(N)=O)NC(=O)[C@H](CCSC)NC(=O)[C@H](CCC(=O)O)NC(=O)[C@H](CC(=O)O)NC(=O)[C@H](CO)NC(=O)[C@H](Cc1ccccc1)NC(=O)[C@H](CO)NC(=O)CNC(=O)[C@H](CC(=O)O)NC(=O)CNC(=O)[C@@H](N)Cc1c[nH]cn1)[C@@H](C)O)[C@@H](C)CC)C(=O)N[C@@H](CC(N)=O)C(=O)N[C@@H](Cc1c[nH]c2ccccc12)C(=O)N[C@@H](CC(C)C)C(=O)N[C@H](C(=O)N[C@@H](CCC(N)=O)C(=O)N[C@H](C(=O)N[C@@H](CCCCN)C(=O)N[C@H](C(=O)N[C@H](C(=O)N[C@@H](CC(=O)O)C(=O)O)[C@@H](C)O)[C@@H](C)CC)[C@@H](C)O)[C@@H](C)CC` [SEQ ID NO: 3] here?
**A.** 20.7%

**Q.** And the “Random coil (percentage)” value [1]?
**A.** 37.1%

**Q.** And the “upper gastrointestinal transit (% small intestine traveled by carmine dye front)” value ([6]; listed as A2G-GLP-2)?
**A.** acceleration of upper gastrointestinal transit

**Q.** What about the “upper gastrointestinal transit (% small intestine traveled by carmine dye front)” value ([6]; listed as A2G-GLP-2 peptide) of the same molecule?
**A.** significant acceleration of intestinal transit

**Q.** What about the “TFE required for helical transformation (helical propensity)” value [3] of the same molecule?
**A.** ~16 % TFE

**Q.** And the “increase in mucosal wet weight” value [7]?
**A.** statistically significant increase

**Q.** What about the “SEC-SLS elution / self-association state” value [4] of the same molecule?
**A.** overlapping dimer and monomer peaks

**Q.** With `CC[C@H](C)[C@H](NC(=O)[C@H](Cc1ccccc1)NC(=O)[C@H](CC(=O)O)NC(=O)[C@H](CCCNC(=N)N)NC(=O)[C@H](C)NC(=O)[C@H](C)NC(=O)[C@H](CC(C)C)NC(=O)[C@H](CC(N)=O)NC(=O)[C@H](CC(=O)O)NC(=O)[C@H](CC(C)C)NC(=O)[C@@H](NC(=O)[C@@H](NC(=O)[C@H](CC(N)=O)NC(=O)[C@H](CCSC)NC(=O)[C@H](CCC(=O)O)NC(=O)[C@H](CC(=O)O)NC(=O)[C@H](CO)NC(=O)[C@H](Cc1ccccc1)NC(=O)[C@H](CO)NC(=O)CNC(=O)[C@H](CC(=O)O)NC(=O)CNC(=O)[C@@H](N)Cc1c[nH]cn1)[C@@H](C)O)[C@@H](C)CC)C(=O)N[C@@H](CC(N)=O)C(=O)N[C@@H](Cc1c[nH]c2ccccc12)C(=O)N[C@@H](CC(C)C)C(=O)N[C@H](C(=O)N[C@@H](CCC(N)=O)C(=O)N[C@H](C(=O)N[C@@H](CCCCN)C(=O)N[C@H](C(=O)N[C@H](C(=O)N[C@@H](CC(=O)O)C(=O)O)[C@@H](C)O)[C@@H](C)CC)[C@@H](C)O)[C@@H](C)CC` [teduglutide] as the molecule, how does the half-life [8] read?
**A.** less than 30 minutes

B1: A2G GLP-2 peptide (peptide)
peptide: HGDGSFSDEMNTILDNLAARDFINWLIQTKITD
notes: Analog of human GLP-2 with Ala2 changed to Gly; also called A2G peptide; GLP-2(A2G)
**Q.** Does B1 bind [9]?
**A.** binds
